Measurements taken from patent publication USRE47689E1, “Compounds for treating spinal muscular atrophy” (PTC Therapeutics, Inc., priority 2011, dated 2019).
Read-outs that look alike come from different tables or passages of the source.

What was measured:
[1] = tested on: SMN2 minigene (full length SMN2 minigene mRNA containing SMN2 exon 7); assay: SMN2 minigene mRNA splicing RT-qPCR assay in cultured cells; assay type: cell-based, human; conditions: Homo sapiens, HEK293-H, read-out: EC1.5x for production of full length SMN2 mRNA
Procedure, shortened: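 Read-out: full-length (exon 7-included) SMN2 minigene mRNA by multiplex RT-qPCR with GAPDH, efficiency-corrected (1+E)^−Ct, GAPDH-normalized and divided by vehicle. Stably transfected HEK293H cells, 24 h compound exposure, duplicates per concentration. Value is EC1.5x, reported as star ranges.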

[2] = tested on: Smn protein; assay: Smn protein assay in cultured cells (SMN HTRF); assay type: cell-based, human; conditions: 48 hours; for EC1.5x (concentration giving 1.5-fold Smn protein increase): SMA Type 1 patient fibroblast cells (GM03813), 7-point concentration curve, SMN HTRF, concentration producing 1.5 times Smn protein vs DMSO vehicle control, read-out: EC1.5x for Smn protein expression; for maximum fold (Fold) increase of Smn protein: SMA patient fibroblast cells, 7-point concentration data, fold increase relative to vehicle control (SMN HTRF)
Procedure, shortened: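 Lysates in RIPA with protease inhibitors are incubated overnight at room temperature with HTRF anti-SMN antibodies. EC1.5x is derived from fold increase in ΔF over vehicle.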

[3] = HEK293H cells stably transfected with SMN2-A minigene, 24 hours, 7-point concentration curve, 1.5-fold relative to vehicle-treated cells

Row | Compound | EC (1.5-fold) [1, 3] | melting point | EC1.5x (concentration giving 1.5-fold Smn protein increase) [2] | maximum fold (Fold) increase of Smn protein [2] | EC (1.5-fold) ([1]; 24 h)
1 | Cc1cn2cc(-c3cc4c(F)cc(N5CCCNCC5)cc4oc3=O)nc2c(C)n1 [Compound 608, 7-(1,4-diazepan-1-yl)-3-(6,8-dimethylimidazo[1,2-a]pyrazin-2-yl)-5-fluoro-2H-chromen-2-one] | < 0.1 µM | 248 to 250 °C | < 300 nM | ***** (fold increase >1.65) | 
2 | CN1CCN(c2ccc3cc(-c4cn5ccsc5n4)c(=O)oc3c2)CC1 [Cpd 117, 3-(imidazo[2,1-b][1,3]thiazol-6-yl)-7-(4-methylpiperazin-1-yl)-2H-chromen-2-one] | 0.1 to 0.3 µM | 256 to 258 °C | 300 to 1000 nM | **** (fold increase between >1.5 and ≤1.65) | 
3 | CCN1CCC(c2ccc3cc(-c4cn5cc(C)ncc5n4)c(=O)oc3c2)CC1 [Compound 844, 7-(1-ethylpiperidin-4-yl)-3-(6-methylimidazo[1,2-a]pyrazin-2-yl)-2H-chromen-2-one] | < 0.1 µM | 249 to 259 °C | 300 to 1000 nM | **** (fold increase between >1.5 and ≤1.65) | 
4 | O=c1oc2cc(OC3CCNCC3)ccc2cc1-c1nc2ccccc2o1 [Cpd 20, 3-(1,3-benzoxazol-2-yl)-7-(piperidin-4-yloxy)-2H-chromen-2-one] | 3 to 30 µM | 198 to 201 °C |  | * (maximum fold increase of ≤1.2) | 
5 | Cc1ccc2nc(-c3cc4ccc(CNC(C)CO)cc4oc3=O)cn2c1 (centres unmarked) [Compound 251, 7-{[(1-hydroxypropan-2-yl)amino]methyl}-3-(6-methylimidazo[1,2-a]pyridin-2-yl)-2H-chromen-2-one] | 3 to 30 µM | 224 to 227 °C |  | * (maximum fold increase of ≤1.2) | 
6 | Cc1cn2cc(-c3cc4ccc(N5CCN(C)CC5)cc4oc3=O)cc2c(C)n1 [Compound 644, 3-(1,3-dimethylpyrrolo[1,2-a]pyrazin-7-yl)-7-(4-methylpiperazin-1-yl)-2H-chromen-2-one] | < 0.1 µM | 127 to 131 °C | < 300 nM | ***** (fold increase >1.65) | 
7 | Cc1cn2cc(-c3cc4ccc(CNC(C)C)cc4oc3=O)nc2c(C)n1 [Compound 850, 3-(6,8-dimethylimidazo[1,2-a]pyrazin-2-yl)-7-[(propan-2-ylamino)methyl]-2H-chromen-2-one] | 0.3 to 1 µM | 285 to 291 °C |  | ** (fold increase between >1.2 and ≤1.35) | 
8 | Cc1cn2cc(-c3cc4ccc(N5CCN(C)CC5)cc4oc3=O)ccc2n1 [Compound 678, 3-(2-methylimidazo[1,2-a]pyridin-6-yl)-7-(4-methylpiperazin-1-yl)-2H-chromen-2-one] | < 0.1 µM | 235 to 238 °C | < 300 nM | ***** (fold increase >1.65) | 
9 | Cc1ccc2nc(-c3cc4ccc(N5CC6CCCNC6C5)cc4oc3=O)cn2c1 (centres unmarked) [Compound 255, 3-(6-methylimidazo[1,2-a]pyridin-2-yl)-7-(octahydro-6H-pyrrolo[3,4-b]pyridin-6-yl)-2H-chromen-2-one] | 3 to 30 µM | 220 to 230 °C |  | * (maximum fold increase of ≤1.2) | 
10 | CN1CCN(c2ccc3cc(-c4cccnc4C(F)(F)F)c(=O)oc3c2)CC1 [Compound 125, 7-(4-methylpiperazin-1-yl)-3-[2-(trifluoromethyl)pyridin-3-yl]-2H-chromen-2-one] | 1 to 3 µM | 180 to 182 °C |  | * (maximum fold increase of ≤1.2) | 
11 | Cc1cn2cc(-c3cc4ccc(CCCN(C)CCO)cc4oc3=O)nc2c(C)n1 [Compound 880, 3-(6,8-dimethylimidazo[1,2-a]pyrazin-2-yl)-7-{3-[(2-hydroxyethyl)(methyl)amino]propyl}-2H-chromen-2-one] | < 0.1 µM | 173 to 176 °C | < 300 nM | **** (fold increase between >1.5 and ≤1.65) | 
12 | CN(C)[C@H]1CCN(c2ccc3cc(-c4cn5cccc(Cl)c5n4)c(=O)oc3c2)C1 [Compound 122, 3-(8-chloroimidazo[1,2-a]pyridin-2-yl)-7-[(3S)-3-(dimethylamino)pyrrolidin-1-yl]-2H-chromen-2-one] | 1 to 3 µM | 238 to 241 °C |  | * (maximum fold increase of ≤1.2) | 
13 | Cc1cc([N+](=O)[O-])c2nc(-c3cc4ccc(N5C[C@@H](C)N[C@@H](C)C5)cc4oc3=O)cn2c1 [Compound 701, 7-[(3R,5S)-3,5-dimethylpiperazin-1-yl]-3-(6-methyl-8-nitroimidazo[1,2-a]pyridin-2-yl)-2H-chromen-2-one] | 1 to 3 µM | 290 to 300 °C |  | ** (fold increase between >1.2 and ≤1.35) | 
14 | O=c1oc2cc(CN3CCC(O)C3)ccc2cc1-c1nc2c(Cl)cccc2s1 (centres unmarked) [Compound 272, 3-(4-chloro-1,3-benzothiazol-2-yl)-7-[(3-hydroxypyrrolidin-1-yl)methyl]-2H-chromen-2-one] | 1 to 3 µM | 188 to 192 °C |  | ** (fold increase between >1.2 and ≤1.35) | 
15 | Cc1ccc2oc(-c3cc4ccc(N5CCN6CCC[C@H]6C5)cc4oc3=O)cc2n1 [Compound 722, 7-[(8aS)-hexahydropyrrolo[1,2-a]pyrazin-2(1H)-yl]-3-(5-methylfuro[3,2-b]pyridin-2-yl)-2H-chromen-2-one] | 1 to 3 µM | 228 to 230 °C |  | * (maximum fold increase of ≤1.2) | 
16 | Cc1cn2cc(-c3cc4ccc(NC5CCNCC5)cc4oc3=O)nc2c(C)n1 [Compound 562, 3-(6,8-dimethylimidazo[1,2-a]pyrazin-2-yl)-7-(piperidin-4-ylamino)-2H-chromen-2-one] | < 0.1 µM | 255 to 261 °C | < 300 nM | **** (fold increase between >1.5 and ≤1.65) | 
17 | CN1CCN(c2ccc3cc(-c4ccn(-c5ccccc5)n4)c(=O)oc3c2)CC1 [Cpd 74, 7-(4-methylpiperazin-1-yl)-3-(1-phenyl-1H-pyrazol-3-yl)-2H-chromen-2-one] | 3 to 30 µM | 152 to 159 °C |  |  | 
18 | O=c1oc2cc(N3CCNCC3)ccc2cc1-c1ccc(Cl)cn1 [Compound 113, 3-(5-chloropyridin-2-yl)-7-(piperazin-1-yl)-2H-chromen-2-one] |  | 180 to 182 °C |  |  | 3 to 30 µM
19 | CN1CCN(c2ccc3cc(-c4cccc(C(F)(F)F)c4)c(=O)oc3c2)CC1 [Compound 11, 7-(4-methylpiperazin-1-yl)-3-[3-(trifluoromethyl)phenyl]-2H-chromen-2-one] | 3 to 30 µM | 150 to 156 °C |  |  | 
20 | CN(C)C1CCN(c2ccc3cc(-c4nc5ccccc5o4)c(=O)oc3c2)C1 (centres unmarked) [Compound 48, 3-(1,3-benzoxazol-2-yl)-7-[3-(dimethylamino)pyrrolidin-1-yl]-2H-chromen-2-one] | 1 to 3 µM | 222 to 224 °C |  |  | 
21 | O=c1oc2cc(OC3CCNCC3)ccc2cc1-c1nc2ccccc2s1 [Compound 46, 3-(1,3-benzothiazol-2-yl)-7-(piperidin-4-yloxy)-2H-chromen-2-one] | 0.3 to 1 µM | 220 to 226 °C |  |  | 
22 | Cc1cccn2cc(-c3cc4ccc(N5CCN(CCO)CC5)cc4oc3=O)nc12 [Compound 102, 7-[4-(2-hydroxyethyl)piperazin-1-yl]-3-(8-methylimidazo[1,2-a]pyridin-2-yl)-2H-chromen-2-one] | 1 to 3 µM | 210 to 212 °C |  |  | 
23 | Cc1cccc2oc(-c3cc4ccc(N5CCN(C)CC5)cc4oc3=O)nc12 [Compound 21, 3-(4-methyl-1,3-benzoxazol-2-yl)-7-(4-methylpiperazin-1-yl)-2H-chromen-2-one] | 3 to 30 µM | 217 to 219 °C |  |  | 
24 | O=c1oc2cc(N3CCNCC3)ccc2cc1Nc1cccnc1 [Compound 66, 7-(piperazin-1-yl)-3-(pyridin-3-ylamino)-2H-chromen-2-one] |  | 172 to 175 °C |  |  | 3 to 30 µM
25 | O=c1oc2cc(CN3CCC(O)CC3)ccc2cc1-c1nc2c(Cl)cccc2s1 [Compound 273, 3-(4-chloro-1,3-benzothiazol-2-yl)-7-[(4-hydroxypiperidin-1-yl)methyl]-2H-chromen-2-one] | 1 to 3 µM | 193 to 196 °C |  |  | 
26 | Cc1cn2cc(-c3cc4ccc(N5CCN[C@H](C)C5)cc4oc3=O)cc2cn1 [Compound 637, 7-[(3R)-3-methylpiperazin-1-yl]-3-(3-methylpyrrolo[1,2-a]pyrazin-7-yl)-2H-chromen-2-one] | < 0.1 µM | 220 to 223 °C |  |  | 
27 | O=c1oc2cc(N3CCNCC3)ccc2cc1Nc1ncccn1 [Compound 33, 7-(piperazin-1-yl)-3-(pyrimidin-2-ylamino)-2H-chromen-2-one] |  | 193 to 195 °C |  |  | 3 to 30 µM
